Tests used:
[1] = target: C-C chemokine receptor type 1 (Rattus norvegicus); assay: Antagonistic activity at rat CCR1 in CHO-K1 cells
[2] = Inhibitory effect on transwell chemotaxis induced by 1 nM MIP-1alpha in mouse pre-B cells transfected with human CCR1

For `CC(=O)Nc1cc2ccccc2cc1/C=C/C(=O)N1CCN(Cc2ccc(F)cc2)C[C@H]1C` [(R)-N-(3-(3-(4-(4-fluorobenzyl)-2-methylpiperazin-1-yl)-3-oxoprop-1-enyl)naphthalen-2-yl)acetamide], the IC50 [1] was 1500 nM.
For `CC(=O)Nc1cc2ncccc2cc1/C=C/C(=O)N1CCN(Cc2ccc(F)cc2)C[C@H]1C` [(R)-N-(6-(3-(4-(4-fluorobenzyl)-2-methylpiperazin-1-yl)-3-oxoprop-1-enyl)quinolin-7-yl)acetamide], the IC50 [1] was 300 nM.
`COc1cc(/C=C/C(=O)N2C3CCC2CN(Cc2ccc(F)cc2)C3)c(NC(C)=O)cc1Cl` [N-(2-(3-(3-(4-fluorobenzyl)-3,8-diaza-bicyclo[3.2.1]octan-8-yl)-3-oxoprop-1-enyl)-5-chloro-4-methoxyphenyl)acetamide] showed an IC50 [1] of 1 nM and an IC50 [2] of 7.5 nM.
`CN(C)CC(=O)Nc1cc(Cl)ccc1/C=C/C(=O)N1C2CCC1CN(Cc1ccc(F)cc1)C2` [N-(2-(3-(3-(4-fluorobenzyl)-3,8-diaza-bicyclo[3.2.1]octan-8-yl)-3-oxoprop-1-enyl)-5-chlorophenyl)-2-(dimethylamino)acetamide] gave an IC50 [1] of 10 nM.
`CC(=O)Nc1cc2ncccc2cc1/C=C/C(=O)N1C2CCC1CN(Cc1ccc(F)cc1)C2` [N-(6-(3-(3-(4-fluorobenzyl)-3,8-diaza-bicyclo[3.2.1]octan-8-yl)-3-oxoprop-1-enyl)quinolin-7-yl)acetamide] gave an IC50 [1] of 6 nM.

Reference: BindingDB's records for doi:10.1016/j.bmcl.2005.08.057 (Novartis Institutes For Biomedical Research, 2005)
